Laboratory results from US20210246115A1 (Bioimics AB, priority 2017, published 2021).
pIC50: −log10 of the molar value. Structures can show the parent of a compound that is named as a salt. Where two headings read alike, the source gives them in different places. One block for each molecule: values may come before it.

Legend:
[1] = system: E. coli RNase P RNA, M1 RNA; assay: Initial screening for inhibition of RNase P activity (normalised cleavage of pATSerUG at maximum compound concentration); type: biochemical; conditions: normalised cleavage (cleavage with compound / without compound) at maximum compound concentration
[2] = system: Enterococcus faecalis (ATCC29212); assay: MIC, broth microdilution (CLSI), Enterococcus faecalis; type: cell-based; conditions: ATCC29212, Table XIV A. Gram-positive bacteria, read-out: E. faecalis ATCC 29212 MIC
[3] = system: Pseudomonas aeruginosa (ATCC27853); assay: MIC, broth microdilution (CLSI), Pseudomonas aeruginosa; type: cell-based; conditions: ATCC27853, Table XIV B. Gram-negative bacteria, read-out: P. aeruginosa ATCC 27853 MIC
[4] = system: Staphylococcus aureus subsp. aureus (ATCC29213); assay: MIC, broth microdilution (CLSI), Staphylococcus aureus ATCC29213; type: cell-based; conditions: Staphylococcus aureus, read-out: S. aureus ATCC 29213 MIC
[5] = system: E. coli RNase P RNA, M1 RNA; assay: Inhibition of bacterial RNase P activity, IC50 determination (cleavage of pATSerUG by M1 RNA); type: biochemical; conditions: NI: No inhibition
[6] = system: S. aureus MRSA ATCC 33591; assay: MIC, S. aureus MRSA ATCC 33591; type: cell-based; conditions: Staphylococcus aureus; Table XIV A. Gram-positive bacteria; read-out: S. aureus MRSA ATCC 33591 MIC
E. faecium ATCC 700221 = assay: MIC, E. faecium ATCC 700221; type: cell-based; conditions: Enterococcus faecium, ATCC700221; Table XIV A. Gram-positive bacteria; read-out: E. faecium ATCC 700221 MIC
S. pneumoniae ATCC 49619 = assay: MIC, S. pneumoniae ATCC 49619; type: cell-based; conditions: Streptococcus pneumoniae, ATCC49619; Table XIV A. Gram-positive bacteria
[7] = system: E. coli JW5503 (efflux defective); assay: MIC, E. coli JW5503 (efflux defective); type: cell-based; conditions: Escherichia coli, read-out: E. coli JW5503 (efflux defective) MIC
K. pneumoniae ATCC 43816 = assay: MIC, K. pneumoniae ATCC 43816; type: cell-based; conditions: Klebsiella pneumoniae, ATCC43816; Table XIV B. Gram-negative bacteria
H. influenzae ATCC 49247 = assay: MIC, H. influenzae ATCC 49247; type: cell-based; conditions: Haemophilus influenzae, ATCC49247; Table XIV B. Gram-negative bacteria
A. baumannii ATCC 17978 = assay: MIC, A. baumannii ATCC 17978; type: cell-based; conditions: Acinetobacter baumannii, ATCC17978; Table XIV B. Gram-negative bacteria
[8] = system: P. aeruginosa NTUH974 (MDR); assay: MIC, P. aeruginosa NTUH974 (MDR); type: cell-based; conditions: Pseudomonas aeruginosa; Table XIV B. Gram-negative bacteria; read-out: P. aeruginosa NTUH974 (MDR) MIC
[9] = system: N. gonorrhoeae ATCC 700825; assay: MIC, N. gonorrhoeae ATCC 700825; type: cell-based; conditions: Neisseria gonorrhoeae, ATCC700825; Table XIV B. Gram-negative bacteria
[10] = system: Escherichia coli (ATCC25922); assay: MIC, broth microdilution (CLSI), Escherichia coli; conditions: Escherichia coli
[11] = system: Staphylococcus aureus (ATCC25923); assay: MIC, broth microdilution (CLSI), Staphylococcus aureus ATCC25923; conditions: Staphylococcus aureus, ATCC25923, read-out: S. aureus ATCC 25923 MIC
[12] = ATCC29213, Table XIV A. Gram-positive bacteria
[13] = ATCC25922, read-out: E. coli ATCC 25922 MIC, Table XIII
[14] = ATCC25922, read-out: E. coli ATCC 25922 MIC, Table XIV B. Gram-negative bacteria

SMILES: Cl.c1ccc2c(CCNCc3cncs3)c[nH]c2c1 [Compound 16, 2-(1H-indol-3-yl)-N-(thiazol-5-ylmethyl) ethan-1-amine hydrochloride salt]
Initial screening of RNase P Inhibition [1]: 0.88

SMILES: Cc1ccc(CN(CCc2c[nH]c3ccccc23)C(=O)CNCc2ccc(F)cc2)cc1.Cl [Compound 15, N-(2-(1H-indol-3-yl)ethyl)-2-((4-fluorobenzyl)amino)-N-(4-methylbenzyl)acetamide hydrochloride salt]
Initial screening of RNase P Inhibition [1]: 1.10

SMILES: Brc1cccc(CNCCc2c[nH]c3ccccc23)n1.Cl [Compound 12, N-((6-bromopyridin-2-yl)methyl)-2-(1H-indol-3-yl)ethan-1-amine hydrochloride salt]
Initial screening of RNase P Inhibition [1]: 0.84

SMILES: c1ccc2c(CCNCC3CCNCC3)c[nH]c2c1 [Compound 18, 2-(1H-indol-3-yl)-N-(piperidin-4-ylmethyl)ethan-1-amine hydrochloride salt]
Initial screening of RNase P Inhibition [1]: 1.05

SMILES: Cl.Fc1ccc(CN(CCc2c[nH]c3ccccc23)Cc2ncc[nH]2)cc1 [Compound 10, N-((1H-imidazol-2-yl)methyl)-N-(4-fluorobenzyl)-2-(1H-indol-3-yl)ethan-1-amine hydrochloride salt]
Initial screening of RNase P Inhibition [1]: 0.95

SMILES: Cl.Clc1ccc(CNCCc2c[nH]c3ccccc23)c(Cl)n1 [Compound 8, N-((2,6-dichloropyridin-3-yl)methyl)-2-(1H-indol-3-yl)ethan-1-amine hydrochloride salt]
Initial screening of RNase P Inhibition [1]: 0.96

SMILES: Cl.c1c[nH]c(CNCCc2c[nH]c3ccccc23)c1 [Compound 14, N-((1H-pyrrol-2-yl)methyl)-2-(1H-indol-3-yl)ethan-1-amine hydrochloride salt]
Initial screening of RNase P Inhibition [1]: 0.78

SMILES: COc1ccc(CNCCc2c[nH]c3ccccc23)cc1.Cl [Compound 11, 2-(1H-indol-3-yl)-N-(4-methoxybenzyl)ethan-1-amine hydrochloride salt]
Initial screening of RNase P Inhibition [1]: 0.72

SMILES: Cl.c1cc(CNCCc2c[nH]c3ccccc23)nc(N2CCCCC2)c1 [Compound 17, 2-(1H-indol-3-yl)-N-((6-(piperidin-1-yl)pyridin-2-yl)methyl)ethan-1-amine hydrochloride salt]
Initial screening of RNase P Inhibition [1]: 0.94

SMILES: Cc1cccc(C(CCNC2CCNCC2)c2cn(CC3CCCCC3)c3ccc(Br)cc23)c1.Cl (centres unmarked) [Compound 163, N-(3-(5-bromo-1-(cyclohexylmethyl)-1H-indol-3-yl)-3-(m-tolyl)propyl)piperidin-4-amine hydrochloride salt]
MIC [2]: 2 µg/mL
MIC [3]: 16 µg/mL
MIC ([4]; ATCC29213, Table XIII): 2 µg/mL
MIC [4, 12]: 4 µg/mL
pIC50 [5]: 5.07
MIC [6]: 4 µg/mL
MIC (E. faecium ATCC 700221): 2 µg/mL
MIC (S. pneumoniae ATCC 49619): 8 µg/mL
MIC [7]: 4 µg/mL
MIC (K. pneumoniae ATCC 43816): 4 µg/mL
MIC (H. influenzae ATCC 49247): 4 µg/mL
MIC (A. baumannii ATCC 17978): 4 µg/mL
MIC [8]: 16 µg/mL
MIC [9]: 2 µg/mL
MIC [10, 13]: 2 µg/mL
MIC [10, 14]: 4 µg/mL
MIC [11]: 1 µg/mL

pIC50 [5]: 3.08
SMILES: CCn1cc(C(CC(=O)NCCC2CCNCC2)c2cccc(C)c2)c2ccccc21.Cl (centres unmarked) [Compound 84, 3-(1-ethyl-1H-indol-3-yl)-N-(2-(piperidin-4-yl)ethyl)-3-(m-tolyl)propanamide hydrochloride salt]
Initial screening of RNase P Inhibition [1]: 0.32

pIC50 [5]: 3.09
SMILES: Cc1cccc(C(CC(=O)NCCC2CCNCC2)c2cn(Cc3ccccc3)c3cccnc23)c1.Cl (centres unmarked) [Compound 85, 3-(1-benzyl-1H-pyrrolo[3,2-b]pyridin-3-yl)-N-(2-(piperidin-4-yl)ethyl)-3-(m-tolyl)propanamide hydrochloride salt]
Initial screening of RNase P Inhibition [1]: 0.20

SMILES: N[C@H]1CC[C@H](NCCc2cn(CC3CCCCC3)c3ccc(-c4cccc(OC(F)(F)F)c4)cc23)CC1 [Compound 274, hydrochloride salt]
MIC [2]: 2 µg/mL
MIC [3]: 8 µg/mL
MIC ([4]; ATCC29213, Table XIII): 4 µg/mL
MIC [4, 12]: 2 µg/mL
pIC50 [5]: 5.19
MIC [6]: 2 µg/mL
MIC (E. faecium ATCC 700221): 2 µg/mL
MIC (S. pneumoniae ATCC 49619): 8 µg/mL
MIC [7]: 4 µg/mL
MIC (K. pneumoniae ATCC 43816): 8 µg/mL
MIC (H. influenzae ATCC 49247): 4 µg/mL
MIC (A. baumannii ATCC 17978): 8 µg/mL
MIC [8]: 16 µg/mL
MIC [9]: 2 µg/mL
MIC [10, 13]: 2 µg/mL
MIC [10, 14]: 4 µg/mL
MIC [11]: 2 µg/mL

SMILES: Cc1cccc(C(CC(=O)NCCC2CCNCC2)c2cn(CC3CCCCC3)c3ccc(Br)cc23)c1.Cl (centres unmarked) [Compound 120, 3-(5-bromo-1-(cyclohexylmethyl)-1H-indol-3-yl)-N-(2-(piperidin-4-yl)ethyl)-3-(m-tolyl)propanamide hydrochloride salt]
MIC [2]: 4 µg/mL
MIC [3]: 64 µg/mL
MIC [4, 12]: 2 µg/mL
pIC50 [5]: 4.96
MIC [6]: 32 µg/mL
MIC (E. faecium ATCC 700221): 4 µg/mL
MIC (S. pneumoniae ATCC 49619): 16 µg/mL
MIC [7]: 16 µg/mL
MIC (K. pneumoniae ATCC 43816): 64 µg/mL
MIC (H. influenzae ATCC 49247): 16 µg/mL
MIC (A. baumannii ATCC 17978): 64 µg/mL
MIC [8]: 64 µg/mL
MIC [9]: 2 µg/mL
MIC [10, 13]: > 512 µg/mL
MIC [10, 14]: 32 µg/mL
MIC [11]: 2 µg/mL

SMILES: Cc1cccc(CC(CC(=O)N[C@H]2CC[C@H](N)CC2)c2cn(CC3CCCCC3)c3ccccc23)c1.Cl (stereo partly drawn) [Compound 202, N-((1R,4R)-4-aminocyclohexyl)-3-(1-(cyclohexylmethyl)-1H-indol-3-yl)-4-(m-tolyl)butanamide hydrochloride salt]
MIC [2]: 8 µg/mL
MIC [3]: 32 µg/mL
MIC [4, 12]: 16 µg/mL
pIC50 [5]: 4.97
MIC [6]: 8 µg/mL
MIC (E. faecium ATCC 700221): 4 µg/mL
MIC (S. pneumoniae ATCC 49619): 16 µg/mL
MIC [7]: 16 µg/mL
MIC (K. pneumoniae ATCC 43816): 64 µg/mL
MIC (H. influenzae ATCC 49247): 16 µg/mL
MIC (A. baumannii ATCC 17978): 32 µg/mL
MIC [8]: 32 µg/mL
MIC [9]: 4 µg/mL
MIC [10, 13]: 33 µg/mL
MIC [10, 14]: 128 µg/mL
MIC [11]: 2 µg/mL

SMILES: Brc1cccc(CNCCc2c[nH]c3ccccc23)c1.Cl [Compound 13, N-(3-bromobenzyl)-2-(1H-indol-3-yl)ethan-1-amine hydrochloride salt]
Initial screening of RNase P Inhibition [1]: 0.97

SMILES: Cl.c1ccc2c(CCNCc3c[nH]cn3)c[nH]c2c1 [Compound 9, N-((1H-imidazol-4-yl)methyl)-2-(1H-indol-3-yl)ethan-1-amine hydrochloride salt]
Initial screening of RNase P Inhibition [1]: 0.91

SMILES: Cc1cccc(C(CCNC2CCC(N)CC2)c2cn(CC34CC5CC(CC(C5)C3)C4)c3ccccc23)c1 [Compound 232, (1S,4S)-N1-(3-(1-(((1S,4S)-adamantan-1-yl)methyl)-1H-indol-3-yl)-3-(m-tolyl)propyl)cyclohexane-1,4-diamine hydrochloride salt]
MIC [2]: 4 µg/mL
MIC [3]: 32 µg/mL
MIC [4, 12]: 4 µg/mL
pIC50 [5]: 5.08
MIC [6]: 4 µg/mL
MIC (E. faecium ATCC 700221): 2 µg/mL
MIC (S. pneumoniae ATCC 49619): 8 µg/mL
MIC [7]: 4 µg/mL
MIC (K. pneumoniae ATCC 43816): 8 µg/mL
MIC (H. influenzae ATCC 49247): 8 µg/mL
MIC (A. baumannii ATCC 17978): 8 µg/mL
MIC [8]: 32 µg/mL
MIC [9]: 4 µg/mL
MIC [10, 13]: 5 µg/mL
MIC [10, 14]: 4 µg/mL
MIC [11]: 2 µg/mL

SMILES: NC1CCC(NCCC(c2cccc(C(F)(F)F)c2)c2cn(CC3CCCCC3)c3ccccc23)CC1 [Compound 168, (1S,4S)-N1-(3-(1-(cyclohexylmethyl)-1H-indol-3-yl)-3-(3-(trifluoromethyl)phenyl)propyl)cyclohexane-1,4-diamine hydrochloride salt]
MIC [2]: 2 µg/mL
MIC [3]: 16 µg/mL
MIC [4, 12]: 2 µg/mL
pIC50 [5]: 4.96
MIC [6]: 4 µg/mL
MIC (E. faecium ATCC 700221): 2 µg/mL
MIC (S. pneumoniae ATCC 49619): 8 µg/mL
MIC [7]: 4 µg/mL
MIC (K. pneumoniae ATCC 43816): 4 µg/mL
MIC (H. influenzae ATCC 49247): 4 µg/mL
MIC (A. baumannii ATCC 17978): 4 µg/mL
MIC [8]: 16 µg/mL
MIC [9]: 2 µg/mL
MIC [10, 13]: 5 µg/mL
MIC [10, 14]: 4 µg/mL
MIC [11]: 2 µg/mL
